Laboratory results reported in ChEMBL document CHEMBL1158845, “Antineoplastic agents. 386. Isolation of sesterstatins 1-3 from the marine sponge Hyrtios erecta” (1998).
≈ marks a conversion by molar mass, not a printed value. Calls of active or inactive are those of the source. No cut-off for these calls is given here.

Experiments:
[1] = test system: P388; assay: Cytotoxicity against mouse P388 cells; format: functional; details: read-out: ED50 (the source's name)
[2] = test system: Staphylococcus aureus; assay: Antibacterial activity against Staphylococcus aureus at 100 ug/disk by disk susceptibility test; format: functional, organism-based
[3] = test system: Micrococcus luteus; assay: Antibacterial activity against Micrococcus luteus at 100 ug/disk by disk susceptibility test; format: functional, organism-based
[4] = test system: Neisseria gonorrhoeae; assay: Antibacterial activity against Neisseria gonorrhoeae at 100 ug/disk by disk susceptibility test; format: functional, organism-based
[5] = test system: Cryptococcus neoformans; assay: Antimicrobial activity against Cryptococcus neoformans at 100 ug/disk by disk susceptibility test; format: functional, organism-based
[6] = test system: Staphylococcus aureus; assay: Antibacterial activity against Staphylococcus aureus by disk susceptibility test; format: functional

MIC [6] [µg]	SMILES	EC50 [1] [µg/mL]	Activity [2]	Activity [3]	Activity [4]	Activity [5]
	CC1(C)[C@@H](O)CC[C@]2(C)[C@H]3C[C@@H](O)[C@]4(C)C5=C(CC[C@H]4[C@]3(C)CC[C@@H]12)COC5=O [SESTERSTATIN 1]	0.46 (≈ 1.14 µM)	inactive	inactive	inactive	inactive
	C[C@@]1(CO)CCC[C@]2(C)[C@H]3C[C@@H](O)[C@]4(C)C5=C(CC[C@H]4[C@]3(C)CC[C@@H]12)COC5=O [SESTERSTATIN 3]	4.3 (≈ 10.7 µM)	inactive	inactive	inactive	inactive
50	C[C@]1(CO)CCC[C@]2(C)[C@H]3C[C@@H](O)[C@]4(C)C5=C(CC[C@H]4[C@]3(C)CC[C@@H]12)COC5=O [SESTERSTATIN 2]	4.2 (≈ 10.4 µM)		inactive	inactive	inactive
